Experimental data from US20100247590A1, “Peptide-Based Systems For Delivery Of Cosmetic Agents” (JOHNSON & JOHNSON, priority 2009, published 2010).
Read-outs that look alike come from different tables or passages of the source. No end group written: not given here.

Assays:
[1] = biotinylated peptide, streptavidin-HRP ELISA
Excerpt: See, e.g., Example 3 of U.S. Patent Application Publication 2005/022683; hereby incorporated by reference. The MB50 provides an indication of the strength of the binding interaction or affinity of the components of the complex. […] For example, a peptide with a nanomolar (nM) MBso binds more tightly than a peptide with a micromolar (μM) MB50.
The purpose of this Example was to determine the affinity and specificity of the various hair-binding peptides for hair and pigment surfaces, measured as MB50 values, using an ELISA assay. Each of the short, linear peptides were originally identified using phage display. Unless otherwise indicated, the sequences provided in Example 2 include a C-terminal lysine residue that was biotinylated for detection purposes.
The MB50 measurements of biotinylated peptides binding to hair and to red iron oxide particles (Unipure Red from Sensient Technologies, Milwaukee, Wis.) were made using hair bundles. The hair samples were assembled in bundles consisting of 100 hairs about 1 cm long which were bundled together using narrow tape at one end. The hair bundles were incubated in SUPERBLOCK® blocking buffer (Pierce Chemical Co., Rockford, Ill.) for 1 hour at room temperature (˜22° C.), followed by 3 washes with TBST (TBS in 0.05% TWEEN® 20). Peptide binding buffer consisting of various concentrations of biotinylated peptide in TBST and 1 mg/mL BSA was added to the hair bundles and incubated for 1 hour at room temperature, followed by 6 TBST washes. Then, the streptavidin-horseradish peroxidase (HRP) conjugate (Pierce Chemical Co., Rockford, Ill.) was added to each well (1.0 μg per well), and incubated for 1 h at room temperature, followed by 6 times of washes with TBST. All hair bundles were transferred to new tubes and then the color development and the absorbance measurements were performed following standard protocols. The results were plotted as A450 versus the concentration of peptide using GraphPad Prism 4.0 (GraphPad Software, Inc., San Diego, Calif.).

[2] = Peptide-mediated binding of Co-NTA magnetic beads to gray hair, visual rating on magnet; design: species or system human; details: Table 11; peptide 0.2 μM
Experimental: Approximately 5 mg of 5 mm long hair strands (90% gray, human) were transferred to 2-mL microcentrifuge tubes. Approximately 1 mL of TBST0.1 buffer (25 mM Tris, 150 mM NaCl, pH7.2, with 0.1% TWEEN®-20) or the same buffer including varying concentrations of HC263 peptide was added to the hair.
The mixtures were shaken on a Nutator for one hour at room temperature (˜22° C.). The hairs were washed three times with TBST0.5 buffer (25 mM Tris, 150 mM NaCl, pH 7.2, with 0.5% TWEEN®-20). After washing, the hairs were resuspended in 900 μL Talon buffer (50 mM sodium phosphate, pH 8.0, 300 mM sodium chloride, 0.01% TWEEN®-20). A subset of hair/peptide conjugates were washed additionally one time with 1 mL of 0.25% SLES (Sodium Lauryl Ether Sulfate) for 5 min at room temperature on the Nutator, then washed two times with 1 mL TBST0.1 buffer. Approximately 0.2 mg of TALON™ beads (DYNABEADS® TALONT™, Invitrogen, Catalog#101.01D) were washed twice with TALON™ buffer on the DYNAL® MPC™ magnet and added to each reaction in 100 μL TALON™ buffer. […]
Beads binding to the hair were expected to co-migrate on the sides of the tubes once applied to the magnet. The strength of binding was visually assessed and rated on a scale of 0 (little or no observed binding) to 5 (highest amount of observed binding). […]

[3] = Visual color assessment of hair treated with peptide then streptavidin-coated iron oxide beads (sequential coloring); details: for color intensity value (0-5, 0 no color deposition, 5 deepest color): Table 15, streptavidin-coated iron oxide beads 500 nm; for perceptible color: Tables 17-19
Experimental: A biotinylated peptide and streptavidin-bead system was used to color hair. Sequential deposition was achieved by the following process.
Miniature hair tresses of approximately 1 inch in length containing 100% unpigmented hair were placed in an aqueous solution with 20 mM of peptides (in DI water or Tris Buffered Saline, pH 7.2, 5-150 mM ionic strength), for up to one hour at room temperature, derived in accordance with the methods set forth herein.
Hair samples were pretreated by exposing the hair to different peptides. The peptide created a layer on the hair. Hair samples with a peptide layer were rinsed with SLES solution to remove excess peptide. Next, the peptide-treated hair samples were incubated with streptavidin tagged iron oxide particles (Bangs Laboratories, Inc., Fishers, Ind.; Ademtech, Inc., Pessas, France) to allow the binding between biotin and streptavidin or between the streptavidin-binding domain in HC260 and streptavidin. Particles were purchased in dispersed form and were diluted to 0.025-1 wt % by adding a specified amount of either DI water or Coupling Buffer from Ademtech. Binding was permitted to take place during an incubation period for up to 24 hours at room temperature (˜22° C.) in the dark. Samples were continuously inverted end-over-end during the binding duration incubation period.
A color scale for the associated color intensity of iron oxide treated hair was defined as (0-5), where 0 is no color deposition and 5 is the deepest color.

[4] = fluorescence microscopy, FIG. 1
Experimental: A biotinylated peptide and streptavidin-coated bead system was used to illustrate the coupling of beads to hair in accordance with the methods and compositions of this invention.
A human hair sample was placed in an aqueous solution containing 20 mM of HCP5 dimer peptide (SEQ ID NO: 204) derived in accordance with the methods set forth herein. […] The HCP5 dimer was purchased from American Peptide Co., Inc. (Sunnyvale, Calif.) in both biotinylated (SEQ ID NO: 205) and non-biotinylated (SEQ ID NO: 204) versions (a single lysine residue was added to the C-terminus of the biotinylated version to facilitate biotin coupling).
Hair samples were pretreated by exposing the hair samples to either the biotinylated or the non-biotinylated peptide. Ten strands of natural dark brown hair (International Hair Importers), three inches in length, were pre-washed with 2% SLES for 30 seconds, then rinsed extensively with DI water. The hair strands were then immersed in 10 mL of a 5-20 micromolar solution of peptide for up to one hour. Ten hair samples were exposed to the biotinylated peptide and ten hair samples were exposed to non-biotinylated peptide. […]
After the incubation period ended, fluorescence microscopy was used to view the binding of 40 nm fluorescently-labeled streptavidin-coated polystyrene particles to hair.

[5] = 200 nm streptavidin-coated iron oxide beads; FIGS. 4A and 4B
Excerpt: Humans can perceive color that is in about the 400 nm to 700 nm range. Ultraviolet light, i.e., 200-400 nm is not visible to humans.

[6] = biological target: streptavidin (Streptomyces avidinii, UniProt P22629); test: biochemical
Sequence of streptavidin (P22629 25-183): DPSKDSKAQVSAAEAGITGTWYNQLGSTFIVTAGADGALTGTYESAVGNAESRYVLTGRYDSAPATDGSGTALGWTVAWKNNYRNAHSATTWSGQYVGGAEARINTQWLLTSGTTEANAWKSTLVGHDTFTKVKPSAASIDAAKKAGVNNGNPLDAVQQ

[7] = Table 17, 200 nm particles, initial, before washing with water
[8] = Table 18, 200 nm particles, after washing with water
[9] = Table 18, 500 nm particles, after washing with water
[10] = Table 19, 200 nm particles, after 0.25% SLES wash

AQSQLPDKHSGLHERAPQRYK-Biotin [Hair2]
MB50 ([1]; substrate 90% gray hair): 0.25 µM | MB50 ([1]; substrate Unipure Red particle): 6.8 µM

GSDPG-Gray3-GGG-Gray3-GGGGSGGGGSG-HHHHHH (GSDPGHDHKNQKETHQRHAAGGGHDHKNQKETHQRHAAGGGGSGGGGSGHHHHHH) [HC214]
Strength of binding (5 highest, 0 lowest) [2]: 0

GSDPG-IB5A-GGGGSGGGGSG-HHHHHH (GSDPGTPPELLHGAPRSGGGGSGGGGSGHHHHHH) [HC205]
Strength of binding (5 highest, 0 lowest) [2]: 0

HCP5-GGSGPGSGG-HCP5 [(HCP5)2]
color intensity value (0-5, 0 no color deposition, 5 deepest color) [3]: 0 | color scale score (0-5) ([3]; Table 16, streptavidin-coated iron oxide beads, sequential coloring method): 0 | color measurement (0-5 color scale) [3, 7]: 0 | color measurement (0-5 color scale) ([3]; Table 17, 500 nm particles, initial, before washing with water): 0 | color measurement (0-5 color scale) [3, 8]: 0 | color measurement (0-5 color scale) [3, 9]: 0 | color measurement (0-5 color scale) [3, 10]: 0 | color measurement (0-5 color scale) ([3]; Table 19, 500 nm particles, after 0.25% SLES wash): 0

HCP5-GGSGPGSGG-HCP5-K [(HCP5)2-biotin]
perceptible color ([3]; 200 nm beads): did not exhibited perceptible color | perceptible color ([3]; 500 nm beads): exhibited perceptible color | color intensity value (0-5, 0 no color deposition, 5 deepest color) [3]: 4 | color measurement (0-5 color scale) [3, 7]: 0 | color measurement (0-5 color scale) [3, 8]: 0 | color measurement (0-5 color scale) [3, 9]: 3 | color measurement (0-5 color scale) [3, 10]: 0 | binding of 40 nm fluorescently-labeled streptavidin-coated polystyrene particles to hair [4]: bound the particles to hair | deposition of beads on hair [5]: 200 nm beads were deposited on the hair

HINKTNPHQGNHHSEKTQRQK-Biotin [MEA4]
MB50 ([1]; substrate 90% gray hair): 0.061 µM | MB50 ([1]; substrate Unipure Red particle): 8.7 µM

MLSENWLTNHPQN [SB33N]
Kd [6]: ~100 µM

THSTHNHGSPRHTNADAGNPK-Biotin [HCP1]
MB50 ([1]; substrate 90% gray hair): 0.044 µM | MB50 ([1]; substrate Unipure Red particle): 9.8 µM

TPPELAHTPHHLAQTRLTDRK-Biotin [Hair4]
MB50 ([1]; substrate 90% gray hair): 0.15 µM | MB50 ([1]; substrate Unipure Red particle): 5 µM
